Each structure is given as a SMILES string. In brackets after ≈: the same amount, converted by molar mass. Read-outs that look alike come from different tables or passages of the source.

Data set [1] deals with HT-29 cell line. On the set-up: method as in doi:10.1007/s00044-011-9549-9. As to conditions: read-out: IC50 HT-29 (literature); cited from earlier work.
Data set [2] has as its system HT-29 cell line. Also noted: method as in PMID 24675137. As to conditions: cited from earlier work.
The test system of data set [3] is Alternaria alternata CBS1526. The data set is described as follows: MIC evaluation (broth method), A. alternata. The format is cell-based. Conditions: Alternaria alternata, CBS1526, 48–72 h, read-out: Minimal inhibitory concentration A. alternata. The method, then: (§1) Sterile 96-well microtiter plates (Sarstedt) with nutrient broth (for bacteria) (Biocorp) or YM medium (for yeast and filamentous fungi) were inoculated with a standardized cell suspension of bacteria and yeast or fungal spores of 10^5 cell·mL^−1, and supplemented with aminochalcones dissolved in DMSO. […] All analysis were conducted in triplicates. The plates were incubated at 30 °C (bacteria and yeast) or 25 °C (filamentous fungi) for 48–72 h. The results were measured with the Spark® Multimode Microplate Reader (Tecan, Männedorf, Switzerland) at a 560 nm wavelength. The minimal inhibitory concentration was defined as the lowest concentration of a tested compound that completely restricted the growth of the microorganism. In order to verify the obtained results, microbial cultures subjected to each concentration of aminochalcone were inoculated onto nutrient agar or YM plates and incubated as described above. The lack of growth on agar plate was a confirmation of the MIC of the tested compound. The resulting MIC values were compared with the reference substances: oxytetracycline (against bacteria), cycloheximide (against yeast) and nystatin (against fungi) (Sigma Aldrich).

Data set [4] deals with LoVo/DX. Nature of the data set: SRB antiproliferative assay, LoVo/DX. The data set is classed as cell-based, human. As to conditions: Homo sapiens, LoVo/DX, 48 h, 1–100 µg·mL^−1, ND = not detected in the tested concentration range. The method, boiled down: (§2)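 IC50 values come from sulforhodamine B staining of colon cancer cells after 48 h with aminochalcones (1–100 µg·mL^−1). Seeding was 5·10^3 per well; medium with 10% FBS, 37 °C.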
Background: The SRB assay estimates cell density from bound dye.

In data set [5] the test system is LoVo. Nature of the data set: SRB antiproliferative assay, LoVo. The data set is classed as cell-based, human. As to conditions: Homo sapiens, LoVo, 48 h, 1–100 µg·mL^−1, ND = not detected in the tested concentration range. The method, boiled down: as §2
In data set [6] the test system is Escherichia coli ATCC10536. Nature of the data set: Microbial growth curve screening, E. coli. The data set is classed as cell-based. As to conditions: 0.1% (w/v); for ∆OD E. coli: OD at 560 nm, control 1.61. The method, boiled down:
(§3)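 Bacteria grew in nutrient broth and fungi in YM medium with compound at 0.1% (w/v) final, added from DMSO. Cultures were shaken at 28 °C for 2–3 days, with OD at 560 nm read every 30 min. Activity is the increase in optical density (ΔOD) relative to DMSO controls.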

The subject of data set [7] is Staphylococcus aureus DSM799. Nature of the data set: MIC evaluation (broth method), S. aureus. The format is cell-based. Conditions: 48–72 h, read-out: Minimal inhibitory concentration S. aureus. The method, boiled down:
(§4)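 Broth microdilution in YM medium for yeast and filamentous fungi (nutrient broth for bacteria), inoculum 10^5 cell·mL^−1, aminochalcones added in DMSO. Incubation 48–72 h at 30 °C (bacteria, yeast) or 25 °C (filamentous fungi), growth read at 560 nm. MIC = lowest concentration fully restricting growth, confirmed by absence of growth on agar subculture.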

Data set [8] has as its system Alternaria alternata CBS1526. The data set is described as follows: Microbial growth curve screening, A. alternata. The format is cell-based. Conditions: 0.1% (w/v), OD at 560 nm, control 1.86. The method, boiled down:
(§5)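 First, microbial suspension and DMSO-dissolved compound (final 0.1% w/v) were combined in medium: nutrient broth for bacteria, YM for fungi. Plates were then incubated at 28 °C under shaking while absorbance at 560 nm was logged at 30 min intervals over 2–3 days. Finally, mean curves gave ΔOD against controls.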

The nature of data set [9]: SRB assay, normal fibroblasts COS7. Conditions: green monkey, COS7 kidney fibroblasts (normal cell line), ND = not detected in the tested concentration range. The data set is classed as cell-based, green monkey. The method, boiled down:
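Cells seeded at 5·10^3/well, cultured overnight, then exposed to aminochalcone derivatives at 1–100 µg·mL^−1 for 48 h at 37 °C, 5% CO2. Growth measured by sulforhodamine B staining; IC50 from three independent experiments, each in quadruplicate.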

In data set [10] the test system is Aspergillus niger DSM1957. Nature of the data set: MIC evaluation (broth method), A. niger. The format is cell-based. Conditions: Aspergillus niger, DSM1957, 48–72 h, read-out: Minimal inhibitory concentration A. niger. The method, then:
as §1

The subject of data set [11] is LS180. Nature of the data set: SRB antiproliferative assay, LS180. The data set is classed as cell-based, human. Conditions: Homo sapiens, LS180, 48 h, 1–100 µg·mL^−1, ND = not detected in the tested concentration range. The method, boiled down:
as §2

The subject of data set [12] is Candida albicans DSM1386. Nature of the data set: Microbial growth curve screening, C. albicans. The data set is classed as cell-based. Conditions: 0.1% (w/v). The method, boiled down: as §5
In data set [13] the test system is Staphylococcus aureus DSM799. The data set is described as follows: Microbial growth curve screening, S. aureus. The format is cell-based. As to conditions: 0.1% (w/v), OD at 560 nm, control 1.67. The method, boiled down: as §3
Data set [14] has as its system Fusarium linii KB-F1. Nature of the data set: Microbial growth curve screening, F. linii. The format is cell-based. Conditions: 0.1% (w/v); for ∆OD F. linii: OD at 560 nm, control 1.95; for Lag-phase F. linii: control 13.5 h. The method, boiled down:
as §5

Data set [15] has as its system HT-29. Nature of the data set: SRB antiproliferative assay, HT-29. The data set is classed as cell-based, human. Conditions: for IC50: Homo sapiens, HT-29, SRB, 48 h, 1–100 µg·mL^−1, ND = not detected in the tested concentration range. The method, boiled down: as §2
In data set [16] the test system is Candida albicans DSM1386. The data set is described as follows: MIC evaluation (broth method), C. albicans. Conditions: DSM1386, broth method, 48–72 h, read-out: Minimal inhibitory concentration C. albicans. The data set is classed as cell-based. The protocol:
as §1

In data set [17] the test system is Escherichia coli ATCC10536. The data set is described as follows: MIC evaluation (broth method), E. coli. The format is cell-based. As to conditions: 48–72 h, read-out: Minimal inhibitory concentration E. coli. The method, boiled down: as §4
Data set [18] has as its system Aspergillus niger DSM1957. The data set is described as follows: Microbial growth curve screening, A. niger. The data set is classed as cell-based. Conditions: 0.1% (w/v). The method, boiled down:
as §5

Data set [19] deals with HT-29, LS180, LoVo and LoVo/DX. The data set is described as follows: SRB assay, all tested human colon cancer cell lines (pooled statement). The format is cell-based. As to conditions: range over HT-29, LS180, LoVo, read-out: IC50 values against all tested human colon cancer cell lines. The method, then:
Anticancer activity was evaluated using the sulforhodamine B assay (SRB) on four different human colon cancer cell lines: HT-29, LS180, LoVo and LoVo/DX and green monkey kidney fibroblasts COS7 (ATCC, Manassas, VA, USA). Cell lines HT-29 and COS7 were cultured in α-MEM medium (IIET PAS, Wrocław, Poland), LS180 in OptiMEM medium (IIET PAS), LoVo and LoVo/DX in mixture of α-MEM and OptiMEM medium (1:1 (v:v)). Each culture medium was supplemented with 10% fetal bovine serum, 2 mM glutamine, 100 μg·mL^−1 penicillin, 100 μg·mL^−1 streptomycin and 0.25 μg·mL^−1 amphotericin (all supplements purchased from Gibco (Paisley, UK). Cells were incubated at 37 °C, 5% CO2 in HeraCELL 150i incubator (Thermo Fisher Scientific, Waltham, MA, USA).
For the SRB assay, cells were seeded onto 96-well plates (Sarstedt, Nümbrecht, Germany) at a density of 5·10^3/well and cultured overnight as described above. Then, the growth medium was gently removed and replaced with fresh medium, supplemented with aminochalcone derivatives in the concentration ranging from 1 µg·mL^−1 to 100 µg·mL^−1. All stock solutions were prepared in DMSO at a concentration of 10 mg·mL^−1. Cells were incubated for 48 h and then the SRB assay was performed as described previously. Each experiment was performed in quadruplicate. The final results were reported as the IC50 values calculated for three independent experiments. […]

With `Nc1ccc(C(=O)/C=C/c2ccccc2Cl)cc1` [4′-amino-2-chlorochalcone], the IC50 in data set [1] was 26.2 µM.

With `Nc1ccccc1C(=O)/C=C/c1ccccc1` [Compound 1, 2′-Aminochalcone], in [2], the “IC50 HT-29 (literature)” value was 0.98 µg/mL (≈ 4.39 µM). For the same compound, the IC50 was 4.39 µM in data set [2] (read-out: IC50 HT-29 (literature)); 1.43 ± 0.02 µg/mL (≈ 6.4 µM) in data set [4]; 1.56 ± 0.04 µg/mL (≈ 6.99 µM) in data set [5]; 2.06 ± 0.18 µg/mL (≈ 9.23 µM) in [11]; 1.43 ± 0.16 µg/mL (≈ 6.4 µM) in data set [15]. In addition, the MIC in data set [3] turned out to be 1 µg/mL (≈ 4.48 µM); in data set [7] it was 0.25 µg/mL (≈ 1.12 µM); in data set [10], 0.125 µg/mL (≈ 0.56 µM). Besides, in [6], the “∆OD E. coli” value worked out at 0.12. In data set [6] (control 4.0 h), the “Lag-phase E. coli” value worked out at 10.0 h. For the same compound, the “∆OD A. alternata” value in [8] turned out to be 0.0. The same compound gave an IC50 at 48 h in data set [9] of 2.64 ± 0.47 µg/mL (≈ 11.8 µM). Further, the “∆OD C. albicans” value in data set [12] (OD at 560 nm, control 1.58) is reported as 0.14. Moreover, the “Lag-phase C. albicans” value in data set [12] (control 3.0 h) is listed as 24.5 h. Besides, the “∆OD S. aureus” value in [13] came to 0.0. For the same compound, the “∆OD F. linii” value in data set [14] is on record as 0.73. The “Lag-phase F. linii” value in data set [14] was determined as 18.5 h. Further, the “times higher activity than cisplatin, HT-29” value in data set [15] (ratio of IC50 values vs cisplatin (19)) was roughly 12 times.

`Nc1cccc(C(=O)/C=C/c2ccccc2)c1` [Compound 2, 3′-Aminochalcone]: the melting point fell in the range of 121 to 124 °C. Further, the MIC in data set [3] was found to be 0.5 µg/mL (≈ 2.24 µM). This compound also showed an IC50 in [4] of 1.97 ± 0.3 µg/mL (≈ 8.82 µM). The compound also gave a half-inhibitory concentration (IC50) in data set [5] of 1.88 ± 0.12 µg/mL (≈ 8.42 µM). In addition, the “∆OD E. coli” value in data set [6] amounted to 0.0. In addition, the MIC in [7] was found to be 0.25 µg/mL (≈ 1.12 µM). Also, the “∆OD A. alternata” value in [8] worked out at 0.0. For the same compound, in [16], the MIC stood at 0.5 µg/mL (≈ 2.24 µM). In data set [9], this compound had an IC50 at 48 h of 3.25 ± 0.66 µg/mL (≈ 14.6 µM). Further, the MIC in data set [17] was 0.25 µg/mL (≈ 1.12 µM). Moreover, half-maximal inhibition in [11] (IC50) was put at 2.13 ± 0.18 µg/mL (≈ 9.54 µM). Also, the “∆OD A. niger” value in data set [18] (OD at 560 nm, control 2.14) stood at 0.34. Further, in data set [18] (control 11.0 h), the “Lag-phase A. niger” value is reported as 1.5 h. Moreover, the IC50 in [19] lay within 1.6 to 2.13 µg/mL (≈ 7.17 to 9.54 µM). Besides, in data set [13], the “∆OD S. aureus” value worked out at 0.0. Besides, in data set [14], the “∆OD F. linii” value is recorded as 0.23 and the “Lag-phase F. linii” value is 30.0 h. The same compound registered an IC50 in data set [15] of 1.6 ± 0.01 µg/mL (≈ 7.17 µM).

The term IC50 denotes the concentration that inhibits the measured activity by half. Broadly, the melting point is the temperature, or range, at which the solid turns liquid.

The values above are taken from paper PMC6891756, “Synthesis and Biological Evaluation of Novel Aminochalcones as Potential Anticancer and Antimicrobial Agents” (Molecules, 2019).
